ChEMBL document CHEMBL5303765, “Data for DCP probe BAY-7081” (2023)

Tests used:
[1] = target: Phosphodiesterase 3 (Homo sapiens) (UniProt Q14432+Q13370); assay: Phosphodiesterase PDE3 Eurofins Panlabs panel; type: protein assay; settings: Compound concentration 10.0 uM
[2] = target: cGMP-specific 3',5'-cyclic phosphodiesterase (Homo sapiens, UniProt O76074); assay: Panlabs assay PDE5A; design: compound concentration 10 uM; settings: at 10 µM

CCC[C@H]1CNCc2c1[nH]c(=O)c(C#N)c2N1CCC2(CC1)CC2
inhibition [1]: -1.5%

CCC[C@@H]1CNCc2c1[nH]c(=O)c(C#N)c2N1CCC2(CC1)CC2
inhibition [2]: 12.2%
